Laboratory results from patent US20240390515A1, “MULTIDOSE OPHTHALMIC COMPOSITIONS” (Oculis Operations Sàrl, priority 2022, published 2024).

What was measured:
[1] = cited from earlier work
[2] = test system: Pseudomonas aeruginosa, Staphylococcus aureus, Candida albicans, Aspergillus brasiliensis, Escherichia coli; experiment: Antimicrobial Efficacy Test (AET) according to USP-NF monograph <51>; type: cell-based; conditions: dexamethasone eye drops, pH 5.0, USP-NF AET methodology
Method: For assessing the antimicrobial preservative agents, an Antimicrobial Efficacy Test (AET) is performed according to both USP-NF and EP standards • USP-NF: “American Pharmacopoeia” monograph <51> • EP: “European Pharmacopoeia” monograph […]
Those AETs consist in challenging the drug formulation containing an antimicrobial preservative agent at a certain concentration with specific microbial strains. The results are provided in microbial reduction expressed in logarithmic units. The acceptance criteria are specific of each standard (either US or EU) according to the table below. For being declared as passing the test, all the criteria must be achieved over the 28 days period. If at least one criterion is missed, then the whole test is declared failed.
AET acceptance criteria (microbial burden reduction in Log units)
Based on current knowledge those three microbial challenge tests (AETs), also known in the past as preservative efficacy tests (PET), are known to be more or less difficult to pass. EP/A test is known to be the most difficult one to pass. EB/B is less difficult than EB/A. USP-NF test is usually less difficult or sometimes equivalent to EP/B.

Structure (SMILES) | Water solubility (at 20° C.) [1] | Temperature Stability ([1]; in words) | solubility in water ([1]; in words) | Log P(octanol/water) ([1]; octanol/water) | minimum effective dose of potassium sorbate used as an antimicrobial agent [2]
C/C=C/C=C/C(=O)O [SA, (2E,4E)-hexa-2,4-dienoic acid] | Low (0.15%) | Low | slightly soluble in water | 1.3 | 
C/C=C/C=C/C(=O)[O-].[K+] [KS, Potassium sorbate] | Good (>50%) | Medium |  |  | 0.235 % w/v
CCCCOC(=O)c1ccc(O)cc1 [BPB, butyl paraben] | Low (0.25%) | Yes |  |  | 
